The text below walks through data of publication PMC9057277 (RSC Advances, 2020).

Assay [1] has as its target T1, purified ovine COX-1 (Ovis aries, UniProt P05979).
T1 sequence (P05979 25-600): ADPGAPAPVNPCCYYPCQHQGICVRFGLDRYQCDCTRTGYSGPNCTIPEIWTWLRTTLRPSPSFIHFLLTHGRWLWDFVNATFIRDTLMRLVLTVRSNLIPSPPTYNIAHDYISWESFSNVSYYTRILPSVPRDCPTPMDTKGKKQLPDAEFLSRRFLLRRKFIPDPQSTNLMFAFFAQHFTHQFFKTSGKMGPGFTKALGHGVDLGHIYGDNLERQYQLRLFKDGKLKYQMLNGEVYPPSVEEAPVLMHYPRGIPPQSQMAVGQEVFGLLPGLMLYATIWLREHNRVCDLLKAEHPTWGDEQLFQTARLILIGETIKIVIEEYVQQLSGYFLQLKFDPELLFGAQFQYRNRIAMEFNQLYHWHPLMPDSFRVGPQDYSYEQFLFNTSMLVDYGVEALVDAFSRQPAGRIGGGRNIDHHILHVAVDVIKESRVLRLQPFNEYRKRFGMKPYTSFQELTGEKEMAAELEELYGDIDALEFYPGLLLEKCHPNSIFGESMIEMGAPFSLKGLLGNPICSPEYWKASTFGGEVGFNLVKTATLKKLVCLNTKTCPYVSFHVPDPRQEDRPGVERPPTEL
Description: COX Fluorescent Inhibitor Screening Assay Kit, COX-1.
Description: 7.4.1 COX inhibition assay
The COX inhibition potency against ovine COX-1 and human COX-2 was determined using the
fluorescence-based COX assay ’COX Fluorescent Inhibitor Screening Assay Kit‘ (catalog number
reported by us.7 In brief, as a measure of COX mediated conversion of arachidonic acid to PG H2 in the
presence of different inhibitor concentrations this assay utilizes the peroxidase component of COX and
analyzes the formation of fluorescent resorufin. All compounds were assayed in a concentration range
of 10 nM to 100 μM, and every inhibitor concentration was assayed in duplicate.
as internal control. IC50 values were estimated using a nonlinear logistic regression ﬁtting procedure
(sigmoidal dose−response model) with Prism Software.

The test system of assay [2] is COX-1. Also noted: method as in PMID 21900596. The note with it: 14C-based COX assay, previously reported by Uddin et al. ref 21; cited from earlier work.
Assay [3] addresses T2, recombinant human COX-2 (Homo sapiens, UniProt P35354).
T2 construct: purchased Cayman Chemical, Ann Arbor, MI 700100
T2 sequence (P35354 18-604): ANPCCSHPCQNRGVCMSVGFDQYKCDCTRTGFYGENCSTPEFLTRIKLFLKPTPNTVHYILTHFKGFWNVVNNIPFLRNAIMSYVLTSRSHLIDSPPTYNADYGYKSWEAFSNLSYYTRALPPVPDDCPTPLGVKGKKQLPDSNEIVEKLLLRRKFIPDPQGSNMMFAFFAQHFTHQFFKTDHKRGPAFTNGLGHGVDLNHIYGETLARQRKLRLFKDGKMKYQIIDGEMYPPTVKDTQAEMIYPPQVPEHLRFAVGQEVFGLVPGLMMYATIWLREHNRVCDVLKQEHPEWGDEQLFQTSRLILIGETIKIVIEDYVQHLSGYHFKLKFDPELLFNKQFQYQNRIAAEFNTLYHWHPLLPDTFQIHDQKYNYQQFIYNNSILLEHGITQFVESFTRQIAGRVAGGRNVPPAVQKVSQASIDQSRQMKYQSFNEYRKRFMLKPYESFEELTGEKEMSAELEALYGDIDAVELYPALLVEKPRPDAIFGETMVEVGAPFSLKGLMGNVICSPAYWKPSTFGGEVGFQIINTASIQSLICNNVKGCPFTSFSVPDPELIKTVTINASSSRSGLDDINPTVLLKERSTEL
Kind of assay: COX Fluorescent Inhibitor Screening Assay Kit, COX-2. The class given is biochemical.

Assay [4] has as its system COX-2. Also noted: method as in PMID 21900596. The note with it: cited from earlier work.

In general, IC50 refers to the concentration that gives 50% inhibition. Take `Cc1ccc(-c2cc(CF)nn2-c2ccc(S(C)(=O)=O)cc2)cc1` [5a]: the IC50 is above 100000 nM in assay [1]; above 4000 nM in assay [2]; 510 nM in assay [3]; 600 nM in assay [4] (14C-based COX assay, previously reported by Uddin et al. ref 21). Further, the Selectivity index was above 196 in assay [3] (IC50 (COX-1)/IC50 (COX-2)) and above 7 in assay [4] (IC50 (COX-1)/IC50 (COX-2), from values previously reported by Uddin et al. ref 21).
